The text below walks through data of publication PMC2747801 (European journal of pharmaceutical sciences : official …, 2009).

For data set [1] the following is noted: cited from earlier work.
The test system of data set [2] is P-glycoprotein (Pgp). The data set can be described thus: Pgp effect: ratio of Pgp-deficient to wild-type uptake clearance. Particulars: for Pgp Effect: ratio of Pgp-deficient Kin to wild-type Kin, CF-1 mice.
For data set [3] the following is noted: male, CF-1, mouse, in vivo, 1 µM, pH 7.4.
The conditions of data set [4]: cited from earlier work. This is another data set of the same source.
The conditions of data set [5]: for Pgp Mutant Kin / logPS(obs): male, pH 7.4; for logPS(obs) / brain uptake clearance: in vivo.
For data set [6] the following is noted: PAMPA intrinsic permeability, cited from earlier work. For orientation: The PAMPA barrier holds no transporters, so it reflects passive diffusion.
The test system of data set [7] is P-glycoprotein (Pgp). As to conditions: male, CF-1, mouse, not told, pH 7.4.
For data set [8] the following is noted: rat, cited from earlier work.
The conditions of data set [9]: rodent and comment not printed ref Fernstermacher 1989; cited from earlier work.
Where [10] appears, read: rat, 5-50uM self-inhibition, training set ref Summerfield et al. 2007.

“And” between values parts separate entries of the source, which are not always exact repeats. Equal values may be shown once. Read-outs that look alike come from different tables or passages of the source.

For the compound `CCCN1C[C@H](C)N([C@H](c2ccc(C(=O)N(CC)CC)cc2)c2cccc(OC)c2)C[C@H]1C` [SNC121], the “logPo^PAMPA” value is on record as −1.24. In addition, the “logPS(obs)” value in [1] (mouse, in vivo) is on record as −1.44 mL/g/s. Further, the Pgp effect ratios in the data set on P-glycoprotein (Pgp) [2] (compounds with down-step in rank classification for wild-type PS values (Fig. 3)) is given as 8.6.

As to `CN(C)CCC=C1c2ccccc2CCc2ccccc21` [amitriptyline], the “Wild-Type Kin” value in data set [3] is recorded as 335 mL/100g/min. In [4] (setting [10]), the “logPS(obs)” value is on record as −1.05 mL/g/s. Besides, in [5] (CF-1, mouse, 1 µM), the “Pgp Mutant Kin” value is listed as 408 mL/100g/min and the “logPS(obs)” value is listed as −0.66 mL/g/s. Moreover, the brain uptake clearance in data set [5] (mouse) was > 255 mL/100 g/min. In addition, in the data set with P-glycoprotein (Pgp) [2], the “Pgp Effect” value is 1.2. For the same compound, the “logPo^PAMPA” value in data set [6] (ref Avdeef et al. 2006) is given as 1.30.

For the compound `COc1ccc(CCN2CCC(Nc3nc4ccccc4n3Cc3ccc(F)cc3)CC2)cc1` [astemizole], the “Wild-Type Kin” value in [3] was determined as 112 mL/100g/min. In addition, in [5] (CF-1, mouse, 1 µM), the “Pgp Mutant Kin” value was found to be 123 mL/100g/min and the “logPS(obs)” value was −1.55 mL/g/s. Also, the “Pgp Effect” value in the data set on P-glycoprotein (Pgp) [7] is on record as 1.1. Further, the “logPo^PAMPA” value in [6] (ref Bendels et al. 2006) was 1.00.

On to `O=C1CC2(CCCC2)CC(=O)N1CCCCN1CCN(c2ncccn2)CC1` [buspirone], for which the “Wild-Type Kin” value in data set [3] was found to be 325 mL/100g/min. For the same compound, the “Pgp Mutant Kin” value in data set [5] (CF-1, mouse, 1 µM) was 341 mL/100g/min. The “Pgp Effect” value in the data set with P-glycoprotein (Pgp) [2] turned out to be 1.0.

`NC(=O)N1c2ccccc2C=Cc2ccccc21` [carbamazepine]: the “logPo^PAMPA” value was −3.73. Further, in data set [3], the “Wild-Type Kin” value turned out to be 173 mL/100g/min. For the same compound, the “logPS(obs)” value in [4] (setting [10]) is on record as −1.75 mL/g/s. Further, in data set [5] (CF-1, mouse, 1 µM), the “Pgp Mutant Kin” value is 184 mL/100g/min and the “logPS(obs)” value is reported as −1.26 mL/g/s. In addition, in the data set with P-glycoprotein (Pgp) [2], the “Pgp Effect” value worked out at 1.1.

On to `CN(C)CCCN1c2ccccc2Sc2ccc(Cl)cc21` [chlorpromazine], for which the “Wild-Type Kin” value in data set [3] is given as 300 mL/100g/min. Besides, in data set [4] (setting [10]), the “logPS(obs)” value is recorded as −1.20 mL/g/s. Moreover, in data set [5] (CF-1, mouse, 1 µM), the “Pgp Mutant Kin” value is listed as 295 mL/100g/min and the “logPS(obs)” value is given as −1.08 mL/g/s. The brain uptake clearance in data set [5] (mouse) is listed as > 255 mL/100 g/min. Further, the “Pgp Effect” value in the data set with P-glycoprotein (Pgp) [2] was determined as 1.0. For the same compound, in data set [6] (ref Avdeef et al. 2004, Ruell et al. 2004), the “logPo^PAMPA” value was 1.62.

Turning to `CN/C(=N/CCSCc1nc[nH]c1C)NC#N` [cimetidine], the “logPS(obs)” value in data set [4] (rat ref Murakami et al. 2000) is on record as −4.05 mL/g/s; in data set [1] (mouse ref Murakami et al. 2000) it was −4.10 mL/g/s. Besides, the “logPo^PAMPA” value in data set [6] (ref Avdeef et al. 2005) is given as −6.20.

In the case of `CN1CCN(C2=Nc3cc(Cl)ccc3Nc3ccccc32)CC1` [clozapine], the “logPo^PAMPA” value is on record as −0.39. For the same compound, the “Wild-Type Kin” value in data set [3] amounted to 118 mL/100g/min. In data set [5] (CF-1, mouse, 1 µM), the “Pgp Mutant Kin” value is reported as 90 mL/100g/min and the “logPS(obs)” value is reported as −1.73 mL/g/s.

For the compound `CN1CC(=O)NC1=N` [creatinine], the “logPo^PAMPA” value is −7.52. For the same compound, in data set [8] (i.v. ref Levin 1980), the “logPS(obs)” value is −4.55 mL/g/s and −4.70 mL/g/s.

Turning to `NCC1(CC(=O)O)CCCCC1` [gabapentin], the “logPo^PAMPA” value is −3.36. Further, the “logPS(obs)” value in data set [4] (rat, in vivo) is −2.56 mL/g/s. Further, in data set [5] (mouse), the “logPS(obs)” value was −2.34 mL/g/s and the “Pgp Mutant Kin” value amounted to 26 mL/100g/min. Moreover, in the data set with P-glycoprotein (Pgp) [7], the “Pgp Effect” value is 1.7.

Take `COc1ccc2c3c1O[C@H]1C[C@@H](O)C=C[C@@]31CCN(C)C2` [galanthamine]: the “logPo^PAMPA” value is recorded as −3.15. In addition, in [5] (mouse), the “logPS(obs)” value is recorded as −2.46 mL/g/s and the “Pgp Mutant Kin” value stood at 20 mL/100g/min. Also, in the data set on P-glycoprotein (Pgp) [7], the “Pgp Effect” value stood at 1.1.

On to `COc1ccc(Cl)cc1C(=O)NCCc1ccc(S(=O)(=O)NC(=O)NC2CCCCC2)cc1` [glibenclamide], for which the “logPS(obs)” value is −2.77 mL/g/s in data set [4] (rat ref Murakami et al. 2000) and −3.27 mL/g/s in [1] (mouse ref Murakami et al. 2000). Also, the “logPo^PAMPA” value in data set [6] (ref Bendels et al. 2006) is given as −2.54.

On to `CC(C)(C)NC(=O)[C@@H]1CN(Cc2cccnc2)CCN1C[C@@H](O)C[C@@H](Cc1ccccc1)C(=O)N[C@H]1c2ccccc2C[C@H]1O` [indinavir], for which the “Wild-Type Kin” value in [3] amounted to 0.52 mL/100g/min.

`CCOC(=O)C1(c2ccccc2)CCN(C)CC1` [meperidine]: the “logPo^PAMPA” value is on record as 0.79. Also, the “logPS(obs)” value in data set [1] (mouse, in vivo) is −1.28 mL/g/s.

On to `Oc1ccc2c3c1O[C@H]1c4[nH]c5ccccc5c4C[C@@]4(O)[C@@H](C2)N(CC2CC2)CC[C@]314` [naltrindole], for which the “logPo^PAMPA” value was −0.94. The “logPS(obs)” value in data set [1] (mouse, in vivo) is −1.98 mL/g/s.

Consider `N[C@H](Cc1ccc(F)cc1)C(=O)O` [p-F-D-phenylalanine], for which the “Pgp Effect” value in the data set with P-glycoprotein (Pgp) [2] was 1.1.

On to `N[C@@H](Cc1ccc(F)cc1)C(=O)O` [p-F-L-phenylalanine], for which the “Pgp Effect” value in the data set on P-glycoprotein (Pgp) [2] is 1.1.

With `O=C1NC(=O)C(c2ccccc2)(c2ccccc2)N1` [phenytoin], the “logPS(obs)” value is −2.20 mL/g/s in data set [4] (rat ref Liu et al. 2004), −2.07 mL/g/s in data set [4] (setting [10]) and −2.30 mL/g/s in [9]. Further, the “logPo^PAMPA” value in data set [6] (ref Ruell et al. 2004) is given as −4.32.

For `CCCN(CCC)S(=O)(=O)c1ccc(C(=O)O)cc1` [probenecid], the “Wild-Type Kin” value in data set [3] is recorded as 0.069 mL/100g/min. For the same compound, in data set [5] (CF-1, mouse, 1 µM), the “Pgp Mutant Kin” value is reported as 0.098 mL/100g/min and the “logPS(obs)” value is −4.79 mL/g/s. Further, in the data set on P-glycoprotein (Pgp) [2], the “Pgp Effect” value was determined as 1.4. Moreover, the “logPo^PAMPA” value in [6] (ref Ruell et al. 2004) is listed as −1.83.

Turning to `CC(C)(C)NC(=O)[C@@H]1C[C@@H]2CCCC[C@@H]2CN1C[C@@H](O)[C@H](Cc1ccccc1)NC(=O)[C@H](CC(N)=O)NC(=O)c1ccc2ccccc2n1` [saquinavir], the “logPo^PAMPA” value is −3.69. In addition, the “Wild-Type Kin” value in data set [3] was determined as 2.9 mL/100g/min. For the same compound, in data set [5] (CF-1, mouse, 1 µM), the “Pgp Mutant Kin” value amounted to 11 mL/100g/min and the “logPS(obs)” value is −2.73 mL/g/s.

Regarding `CN[C@H]1CC[C@@H](c2ccc(Cl)c(Cl)c2)c2ccccc21` [sertraline], the “logPo^PAMPA” value is 2.10. In the data set on P-glycoprotein (Pgp) [2], the “Pgp Effect” value is 1.0.

Consider `CC(C)(C)c1ccc(C(O)CCCN2CCC(C(O)(c3ccccc3)c3ccccc3)CC2)cc1` (stereo not shown) [terfenadine], for which the “Wild-Type Kin” value in data set [3] was determined as 126 mL/100g/min. Moreover, in data set [5] (CF-1, mouse, 1 µM), the “Pgp Mutant Kin” value is on record as 129 mL/100g/min and the “logPS(obs)” value is −1.52 mL/g/s. Further, in data set [6] (ref Ruell et al. 2004, Avdeef et al. 2007), the “logPo^PAMPA” value was 2.63.

Consider `Cn1c(=O)c2[nH]cnc2n(C)c1=O` [theophylline], for which the “logPS(obs)” value was −2.90 mL/g/s in data set [4] (rat ref Liu et al. 2004), −2.81 mL/g/s in data set [4] (rat ref Murakami et al. 2000) and −3.26 mL/g/s in [1] (mouse ref Murakami et al. 2000). In data set [6] (ref Avdeef et al. 2006), the “logPo^PAMPA” value was −5.99.

For the compound `CC[C@]1(O)C[C@@H]2CN(CCc3c([nH]c4ccccc34)[C@@](C(=O)OC)(c3cc4c(cc3OC)N(C)[C@H]3[C@@](O)(C(=O)OC)[C@H](OC(C)=O)[C@]5(CC)C=CCN6CC[C@]43[C@@H]65)C2)C1` [vinblastine], the “logPo^PAMPA” value is listed as −0.42. The “logPS(obs)” value in data set [4] (rat ref Greig et al. 1990) is −3.27 mL/g/s. The “logPS(obs)” value in [4] (rat, PSC833 ref Cisternino et al. 2003) is −3.36 mL/g/s. Besides, in data set [1] (mouse ref Murakami et al. 2000), the “logPS(obs)” value is −3.32 mL/g/s. Besides, the “logPS(obs)” value in [1] (mouse, GF120918, footnote v ref Cisternino et al. 2004) was −3.25 mL/g/s. The “logPS(obs)” value in data set [1] (mouse, mdr1a(−/−)+GF120918 ref Cisternino et al. 2001) is −3.12 mL/g/s.

As to `CC[C@]1(O)C[C@H]2CN(CCc3c([nH]c4ccccc34)[C@@](C(=O)OC)(c3cc4c(cc3OC)N(C=O)[C@H]3[C@@](O)(C(=O)OC)[C@H](OC(C)=O)[C@]5(CC)C=CCN6CC[C@]43[C@@H]65)C2)C1` [vincristine], the “logPo^PAMPA” value is given as −2.72. Besides, in data set [4] (rat ref Greig et al. 1990), the “logPS(obs)” value is recorded as −3.91 mL/g/s. Besides, the “logPS(obs)” value in data set [4] (rat ref Murakami et al. 2000) is recorded as −4.10 mL/g/s. Further, the “logPS(obs)” value in data set [1] (mouse ref Murakami et al. 2000) is reported as −4.12 mL/g/s. Also, in [1] (mouse, mdr1a(−/−) ref Cisternino et al. 2001), the “logPS(obs)” value was −3.82 mL/g/s. For the same compound, the “logPS(obs)” value in [1] (mouse, mrp1(−/−), footnote x ref Cisternino et al. 2003) is on record as −4.25 mL/g/s. Besides, the “logPS(obs)” value in [9] is −4.00 mL/g/s.

Turning to `Cc1cn([C@H]2C[C@H](N=[N+]=[N-])[C@@H](CO)O2)c(=O)[nH]c1=O` [zidovudine], the “logPo^PAMPA” value is −5.79. Also, in data set [8] (i.v. ref Wu et al. 1998), the “logPS(obs)” value is given as −3.99 mL/g/s.
